This note sets out measurements from US5410049A, “Benzodiazepine derivatives, compositions containing them and their use in therapy” (Merck Sharpe & Dohme Ltd., priority 1991, dated 1995).

Read-outs that look alike come from different tables or passages of the source. Where only a bound is given, the exact number is not on record here.

Experiment [1] addresses T1, CCK receptor (pancreas) (Rattus norvegicus, UniProt P30551).
T1 construct: The whole pancreas was dissected free of fat tissue and was homogenized; from tissue; host or cells: pancreas of male Sprague-Dawley rats (membrane homogenate)
T1 sequence (P30551 1-444): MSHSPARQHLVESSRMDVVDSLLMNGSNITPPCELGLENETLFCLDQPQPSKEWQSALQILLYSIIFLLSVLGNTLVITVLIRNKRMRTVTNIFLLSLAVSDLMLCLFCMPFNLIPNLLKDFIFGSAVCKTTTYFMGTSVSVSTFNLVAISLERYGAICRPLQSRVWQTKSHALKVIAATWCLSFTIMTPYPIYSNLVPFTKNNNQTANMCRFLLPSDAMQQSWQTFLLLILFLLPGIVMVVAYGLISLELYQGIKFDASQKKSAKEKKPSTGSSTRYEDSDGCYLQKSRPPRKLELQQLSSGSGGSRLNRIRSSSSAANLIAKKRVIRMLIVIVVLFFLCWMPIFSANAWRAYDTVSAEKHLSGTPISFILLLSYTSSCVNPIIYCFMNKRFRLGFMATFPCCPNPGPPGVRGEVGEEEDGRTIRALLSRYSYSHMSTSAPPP
The experiment in a line: CCK Receptor Binding (Pancreas), inhibition of 125I-CCK-8 binding. Details: species or system rat (male Sprague-Dawley). As to the method:
Male Sprague-Dawley rats (150-200 g) were sacrificed by decapitation. The whole pancreas was dissected free of fat tissue and was homogenized in 25 volumes of ice-cold 10 mMN-2-hydroxyethyl-piperazine-N'-2-ethane sulphonic acid (HEPES) buffer with 0.1% soya bean trypsin inhibitor (pH 7.4 at 25° C.) with a Kinematica Polytron. The homogenates were centrifuged at 47,800 g for 10 min. Pellets were resuspended in 10 volumes of binding assay buffer (20mM (HEPES)), 1 mM ethylene glycol-bis-(β-aminoethylether-N,N'-tetraacetic acid) (EGTA), 5mM MgCl2, 150 mM NaCl, bacitracin 0.25 mg/ml, soya bean trypsin inhibitor 0.1 mg/ml, and bovine serum albumin 2 mg/ml pH 6.5 at 25° C.) using a Teflon (trademark) homogenizer, 15 strokes at 500 rpm. The homogenate was further diluted in binding assay buffer to give a final concentration of 0.5 mg original wet weight/1 ml buffer. […] All assays were run in duplicate. The reaction mixtures were incubated at 25° C. for 2 hours and the reaction terminated by rapid filtration (Brandell 24 well cell harvester) over Whatman GF/C filters, washing 3×4 mls with ice-cold 100 Mm NaCl. The radioactivity on the filters was counted with a LKB gamma counter.

The target of experiment [2] is T2, CCK receptor (brain) (Cavia porcellus, UniProt H0VZC5).
T2 construct: the cortex was removed and homogenized in 25 mL ice-cold 0.32M sucrose; from tissue; host or cells: cortex of male Hartley guinea pigs (P2 membrane pellet)
T2 sequence (H0VZC5 1-426): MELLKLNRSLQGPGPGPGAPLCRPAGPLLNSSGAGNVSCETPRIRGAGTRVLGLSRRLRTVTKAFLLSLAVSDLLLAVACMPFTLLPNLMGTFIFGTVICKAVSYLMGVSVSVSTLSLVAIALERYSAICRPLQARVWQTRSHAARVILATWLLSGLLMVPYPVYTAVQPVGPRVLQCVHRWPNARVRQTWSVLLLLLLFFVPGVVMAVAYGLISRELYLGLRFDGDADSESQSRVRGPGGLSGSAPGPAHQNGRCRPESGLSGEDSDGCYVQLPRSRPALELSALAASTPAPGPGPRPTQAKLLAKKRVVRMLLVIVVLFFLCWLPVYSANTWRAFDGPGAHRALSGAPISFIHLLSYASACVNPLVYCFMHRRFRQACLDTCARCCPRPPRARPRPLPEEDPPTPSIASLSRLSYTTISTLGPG
The experiment is described as follows: CCK Receptor Binding (Brain), inhibition of 125I-CCK-8 binding. Particulars: guinea pig cortex membranes, 50 pM 125I-CCK-8, pH 6.5, 25° C., 2 hours. Details: species or system guinea pig (male Hartley). Here is the method: CCK-8 sulphated was radiolabelled and the binding was performed according to the description for the pancreas method with minor modifications.
Male Hartley guinea pigs (300-500 g) were sacrificed by decapitation and the cortex was removed and homogenized in 25 mL ice-cold 0.32M sucrose. The homogenates were centrifuged at 1000 g for 10 minutes and the resulting supernatant was recentrifuged at 20,000 g for 20 minutes. The P2 pellet was resuspended in binding assay buffer (20mM HEPES, 5 mM MgCl2, 0.25 mg/ml bacitracin, 1 mM EGTA pH 6.5 at 25° C.), using a Teflon (trademark) homogenizer (5 strokes at 500 rpm) to give a final concentration of 10 mg original wet weight/1.2 ml buffer. For the binding assay, 50 μl of buffer (for total binding) or unlabelled CCK-8 sulphated to give a final concentration of 1 μM (for nonspecific binding) or the compounds of Formula I (for determination of inhibition of ^125 I-CCK-8 binding) and 50 μl of 500 pM ^125 I-CCK-8 (i.e. final concentration of 50 pM) were added to 400 μl of the membrane suspensions in microfuge tubes. All assays were run in duplicate. The reaction mixtures were incubated at 25° C. for 2 hours and then the reaction was terminated by rapid filtration (Brandell 24 well cell harvester) on Whatman GF/C filters with 3×5 ml washes of cold 100 mM NaCl. The radioactivity on the filters was counted with a LKB gamma counter.
Drug displacement studies were performed with at least 10 concentrations of compounds of Formula I and the IC50 values were determined by regression analysis IC50 refers to the concentration of the compound required to inhibit 50% of specific binding of ^125 I-CCK-8.

[3] abbreviates: rat pancreas membranes, 50 pM 125I-CCK-8, pH 6.5, 25° C., 2 hours, read-out: CCK RECEPTOR BINDING RESULTS IC50, 125I-CCK Pancreas.

As for `CN1C(=O)[C@H](NC(=O)Nc2cccc(C3=C(O)CNC3=O)c2)N=C(c2ccccc2)c2ccccc21` [Example 3, N-[3(R)-2,3-Dihydro-1-methyl-2-oxo-5-phenyl-1H-1,4-benzodiazepin-3-yl]N'-[3-(2,5-dihydro-4-hydroxy-2-oxopyrrol-3-yl)phenyl]urea], the IC50 (usually the point on the concentration scale where inhibition reaches its midpoint) in experiment [1] was more than 3000 nM; in experiment [2], 16 nM.
Regarding `CN1C(=O)[C@H](NC(=O)Nc2cccc(C3=C(O)CNC3=O)c2)N=C(C2CCCCC2)c2ccccc21` [Example 6, N-[3(R)-5-Cyclohexyl-2,3-dihydro-1-methyl-2-oxo-1H-1,4-benzodiazepin-3-yl]N'-[3-(2,5-dihydro-4-hydroxy-2oxopyrrol-3-yl)phenyl]urea], the IC50 stood at 110 nM in experiment [1] (setting [3]) and 0.67 nM in experiment [2].
Turning to `CN1CC(O)=C(c2cccc(NC(=O)NC3N=C(C4CCCCC4)c4ccccc4N(C)C3=O)c2)C1=O` (racemic) [Example 4, N-[3(R,S)-5-Cyclohexyl-2,3-dihydro-1-methyl-2-oxo-1H-1,4-benzodiazepin-3-yl]N'-[3-(2,5-dihydro-4-hydroxy-N-methyl-2-oxopyrrol-3-yl)phenyl]urea], the IC50 in experiment [1] (setting [3]) turned out to be 56 nM; in experiment [2] it was 6.3 nM.
Take `CN1C(=O)C(NC(=O)Nc2cccc(C3=C(O)CNC3=O)c2)N=C(C2CCCCC2)c2ccccc21` (racemic) [Example 2, N-[3(R,S)-5-Cyclohexyl-2,3-dihydro-1-methyl-2-oxo-1H-1,4-benzodiazepin-3-yl]N'-[3-(2,5-dihydro-4-hydroxy-2-oxopyrrol-3-yl)phenyl]urea]: the IC50 is 7.5 nM in experiment [1] (setting [3]) and 2.9 nM in experiment [2].
For `CN1CC(O)=C(c2cccc(NC(=O)N[C@@H]3N=C(C4CCCCC4)c4ccccc4N(C)C3=O)c2)C1=O` [Example 5, N-[3(R)-5-Cyclohexyl-2,3-dihydro-1-methyl-2-oxo-1H-1,4-benzodiazepin-3-yl]N'-[3-(2,5-dihydro-4-hydroxy-N-methyl-2-oxopyrrol-3-yl)phenyl] urea] the same measures were 280 nM and 2.5 nM.
`CN1C(=O)C(NC(=O)Nc2cccc(C3=C(O)CSC3=O)c2)N=C(C2CCCCC2)c2ccccc21` (racemic) [Example 1, N-[3(R,S)-5-Cyclohexyl-2,3,dihydro-1-methyl-2-oxo-1H-1,4-benzodiazepin-3-yl]N', [3-(2,5,dihydro-4-hydroxy-2-oxothien,3-yl)phenyl]urea]: the IC50 in experiment [1] (setting [3]) came out at 13 nM; in experiment [2] it was 3.9 nM.
